# Experimental data published in article PMC10886162, “Synthesis of Novel Artemisinin, Ciprofloxacin, and Norfloxacin Hybrids with Potent Antiplasmodial Activity” (Antibiotics, 2024).
# Experiments:
# [1] = system: CQ-resistant P. falciparum FcB1 strain; assay: In vitro growth inhibition of P. falciparum FcB1 ([3H]-hypoxanthine incorporation); assay type: cell-based, Plasmodium falciparum; conditions: for Selectivity Index (IC50 AB943/IC50 FcB1): ratio of cytotoxicity IC50 to antiplasmodial IC50 (FcB1)
# Description: (§1) The chloroquine-resistant FcB1/Colombia and Dd2/Indochina strains of Plasmodium falciparum were obtained from the Protist Collection of the National Museum of Natural History, Paris, France (n° MNHN-CEU-2016-224-PfFCB1 and MNHN-CEU-2016-222-PfDD2). The parasites were maintained in vitro on human erythrocytes in RPMI 1640 medium supplemented by 8% (v/v) heat-inactivated human serum, at 37 °C, under an atmosphere of 5% CO2. The human red blood cells and serum were provided by the Établissement Français du Sang under the C-CPSL-UNT approval no. 13/EFS/126. The in vitro drug susceptibility assays were measured by [^3H]-hypoxanthine incorporation, as previously described. The drug stock solutions were prepared in DMSO. Briefly, the assays were performed in 96-well plates. The compounds were diluted in the culture medium (100 μL per well). The parasite cultures (100 μL, 2% parasitaemia, and 1% final hematocrit) were then added to each well and incubated for 24 h at 37 °C prior to the addition of 0.5 μCi of [^3H]- hypoxanthine (GE Healthcare, Paris, France, 1 to 5 Ci·mmol/mL) per well. After a further incubation of 24 h, the plates were frozen and thawed. The cell lysates were then collected onto fiberglass filters and counted in a liquid scintillation spectrometer. The growth inhibition for each drug concentration was determined through a comparison of the radioactivity incorporated in the treated culture with that in the control culture maintained on the same plate. The drugs were first evaluated for a range of fixed concentrations of 50, 5, 0.5, 0.05, and 0.005 μg/mL. […] The IC50 value was obtained from the drug concentration–response curve, and the results were expressed in μM or nM as the mean values ± standard deviations determined from several independent experiments. Artesunate (46) was used as an antimalarial drug control.
# [2] = system: CQ-resistant Dd2 strain of P. falciparum; assay: In vitro growth inhibition of P. falciparum Dd2 ([3H]-hypoxanthine incorporation); assay type: cell-based, Plasmodium falciparum; conditions: for IC50: Plasmodium falciparum, CQ-resistant Dd2, mean +/− SD of at least three independent experiments; for Selectivity Index (IC50 AB943/IC50 Dd2): ratio of cytotoxicity IC50 to antiplasmodial IC50 (Dd2)
# Description: as §1
# [3] = system: human primary fibroblasts AB943; assay: Cytotoxicity upon human primary fibroblasts AB943 (resazurin); assay type: cell-based; conditions: Fibroblast, 72 h, mean +/− SD of at least three independent experiments
# Description: A cellular cytotoxicity evaluation was performed upon human primary fibroblasts AB943, as previously described. The assays were realized in 96-well plates in DMEM + Glutamax without phenol red medium containing 25 mM HEPES, a pH of 7.3, and 10% of fetal calf serum under a 5% CO2 atmosphere, at 37 °C. After trypsin treatment, the AB943 cells were seeded at 2000 cells per well in 100 μL. After 24 h of incubation, drugs diluted in the culture medium were added (100 μL per well). The drug stock solutions were prepared in dimethyl sulfoxide (DMSO). The final DMSO concentration in the cultures remained below 1%. Control cultures were constituted of cultures treated with DMSO instead of the drug. The cytotoxicity assay was based on the conversion of a redo-sensitive dye (resazurin) to a fluorescent product via viable cells. After 72 h of incubation, the resazurin solution was added in each well at a final concentration of 45 μM. The fluorescence was measured at 530 nm excitation and 590 nm emission wavelengths after 4 h of incubation. The percentage of the inhibition of cell growth was calculated by comparing the fluorescence of cells maintained in the presence of the drug to that in the absence of the drug. The concentration causing 50% growth inhibition (IC50) was obtained from the drug concentration–response curve, and the results were expressed as the mean values ± standard deviations determined from several experiments.
# [4] = Plasmodium falciparum, FCB1, CQ-resistant FcB1, IC50 determined from the compound tested at 50, 5, 0.5 µg/mL and 50 and 5 ng/mL in triplicate (footnote b)
# [5] = Plasmodium falciparum, FCB1, CQ-resistant FcB1, mean +/− standard deviation of independent experiments (at least four in Tables 1-2, at least three in Tables 3-4)
# [6] = Plasmodium falciparum, FCB1, Table 5, CPX or NRX fragments alone
# [7] = CQ-resistant FcB1, IC50 determined from the compound tested at 50, 5, 0.5 µg/mL and 50 and 5 ng/mL in triplicate (footnote b)
structure (smiles),measurement,setting,value
"O=C(O)c1cn(C2CC2)c2cc(N3CCNCC3)c(F)cc2c1=O [CPX, ciprofloxacin]",IC50,[1]; [4],54.1 µM
"C[C@@H]1CCC2[C@@H](C)[C@@H](CC(=O)N3CCN(c4cc5c(cc4F)c(=O)c(C(=O)O)cn5C4CC4)CC3)O[C@@H]3O[C@@]4(C)CCC1[C@@]23OO4 (stereo partly drawn) [Compound 12, 1-cyclopropyl-6-fluoro-4-oxo-7-(4-(2-((3R,6R,9R,10R,12R,12aR)-3,6,9-trimethyldecahydro-12H-3,12-epoxy[1,2]dioxepino[4,3-i]isochromen-10-yl)acetyl)piperazin-1-yl)-1,4-dihydroquinoline-3-carboxylic acid]",melting point,,123 to 124 °C
same,IC50,[2],32.5 nM
same,Selectivity Index (IC50 AB943/IC50 Dd2),[2],2034
same,IC50,[1]; [5],0.0148 µM
same,Selectivity Index (IC50 AB943/IC50 FcB1),[1],4453
same,IC50,[3],66.1 µM
"C[C@@H]1CCC2[C@@H](C)[C@@H](CCC(=O)N3CCN(c4cc5c(cc4F)c(=O)c(C(=O)O)cn5C4CC4)CC3)O[C@@H]3O[C@@]4(C)CCC1[C@@]23OO4 (stereo partly drawn) [Compound 13, 1-cyclopropyl-6-fluoro-4-oxo-7-(4-(3-((3R,6R,9R,10R,12R,12aR)-3,6,9-trimethyldecahydro-12H-3,12-epoxy[1,2]dioxepino[4,3-i]isochromen-10-yl)propanoyl)piperazin-1-yl)-1,4-dihydroquinoline-3-carboxylic acid]",melting point,,136 to 137 °C
same,IC50,[1]; [4],2.91 µM
"CCOC(=O)c1cn(C2CC2)c2cc(N3CCN(C(=O)C[C@H]4O[C@@H]5O[C@@]6(C)CCC7[C@H](C)CCC([C@H]4C)[C@]75OO6)CC3)c(F)cc2c1=O (stereo partly drawn) [Compound 14, Ethyl 1-cyclopropyl-6-fluoro-4-oxo-7-(4-(2-((3R,6R,9R,10R,12R,12aR)-3,6,9-trimethyldecahydro-12H-3,12-epoxy[1,2]dioxepino[4,3-i]isochromen-10-yl)acetyl)piperazin-1-yl)-1,4-dihydroquinoline-3-carboxylate]",melting point,,142 to 143 °C
same,IC50,[1]; [4],0.121 µM
"CCOC(=O)c1cn(C2CC2)c2cc(N3CCN(C(=O)CC[C@H]4O[C@@H]5O[C@@]6(C)CCC7[C@H](C)CCC([C@H]4C)[C@]75OO6)CC3)c(F)cc2c1=O (stereo partly drawn) [Compound 15, Ethyl 1-cyclopropyl-6-fluoro-4-oxo-7-(4-(3-((3R,6R,9R,10R,12R,12aR)-3,6,9-trimethyldecahydro-12H-3,12-epoxy[1,2]dioxepino[4,3-i]isochromen-10-yl)propanoyl)piperazin-1-yl)-1,4-dihydroquinoline-3-carboxylate]",melting point,,110.4 to 111.5 °C
same,IC50,[1]; [4],1.47 µM
"CCCCOC(=O)c1cn(C2CC2)c2cc(N3CCN(C(=O)CC[C@H]4O[C@@H]5O[C@@]6(C)CCC7[C@H](C)CCC([C@H]4C)[C@]75OO6)CC3)c(F)cc2c1=O (stereo partly drawn) [Compound 17, Butyl 1-cyclopropyl-6-fluoro-4-oxo-7-(4-(3-((3R,6R,9R,10R,12R,12aR)-3,6,9-trimethyldecahydro-12H-3,12-epoxy[1,2]dioxepino[4,3-i]isochromen-10-yl)propanoyl)piperazin-1-yl)-1,4-dihydroquinoline-3-carboxylate]",IC50,[1]; [4],0.362 µM
"CCn1cc(C(=O)N2CCN(c3ccnc4cc(Cl)ccc34)CC2)c(=O)c2cc(F)c(N3CCN(C(=O)C[C@H]4O[C@@H]5O[C@@]6(C)CCC7[C@H](C)CCC([C@H]4C)[C@]75OO6)CC3)cc21 (stereo partly drawn) [Compound 27, 3-(4-(7-chloroquinolin-4-yl)piperazine-1-carbonyl)-1-ethyl-6-fluoro-7-(4-(2-((3R,6R,9R,10R,12R,12aR)-3,6,9-trimethyldecahydro-12H-3,12-epoxy[1,2]dioxepino[4,3-i]isochromen-10-yl)acetyl)piperazin-1-yl)quinolin-4(1H)-one]",melting point,,173.6 to 174.5 °C
same,IC50,[2],28.5 nM
same,IC50,[1]; [5],0.0066 µM
"CCOC(=O)c1cn(C2CC2)c2cc(N3CCN(C(c4ccccc4)(c4ccccc4)c4ccccc4)CC3)c(F)cc2c1=O [Compound 32, Ethyl 1-cyclopropyl-6-fluoro-4-oxo-7-(4-tritylpiperazin-1-yl)-1,4-dihydroquinoline-3-carboxylate]",IC50,[1]; [4],41.9 µM
"CCCCOC(=O)c1cn(C2CC2)c2cc(N3CCN(C(c4ccccc4)(c4ccccc4)c4ccccc4)CC3)c(F)cc2c1=O [Compound 33, Butyl 1-cyclopropyl-6-fluoro-4-oxo-7-(4-tritylpiperazin-1-yl)-1,4-dihydroquinoline-3-carboxylate]",IC50,[1]; [4],3.9 µM
"CCOC(=O)c1cn(CC)c2cc(N3CCN(C(c4ccccc4)(c4ccccc4)c4ccccc4)CC3)c(F)cc2c1=O [Compound 34, Ethyl 1-ethyl-6-fluoro-4-oxo-7-(4-tritylpiperazin-1-yl)-1,4-dihydroquinoline-3-carboxylate]",IC50,[1]; [4],84.8 µM
"CCCCOC(=O)c1cn(CC)c2cc(N3CCN(C(c4ccccc4)(c4ccccc4)c4ccccc4)CC3)c(F)cc2c1=O [Compound 35, Butyl 1-ethyl-6-fluoro-4-oxo-7-(4-tritylpiperazin-1-yl)-1,4-dihydroquinoline-3-carboxylate]",IC50,[1]; [4],26.2 µM
"O=C(c1cn(C2CC2)c2cc(N3CCN(C(c4ccccc4)(c4ccccc4)c4ccccc4)CC3)c(F)cc2c1=O)N1CCN(c2ccnc3cc(Cl)ccc23)CC1 [Compound 36, 3-(4-(7-chloroquinolin-4-yl)piperazine-1-carbonyl)-1-cyclopropyl-6-fluoro-7-(4-tritylpiperazin-1-yl)quinolin-4(1H)-one]",IC50,[1]; [4],26.5 µM
"CCn1cc(C(=O)N2CCN(c3ccnc4cc(Cl)ccc34)CC2)c(=O)c2cc(F)c(N3CCN(C(c4ccccc4)(c4ccccc4)c4ccccc4)CC3)cc21 [Compound 37, 3-(4-(7-chloroquinolin-4-yl)piperazine-1-carbonyl)-1-ethyl-6-fluoro-7-(4-tritylpiperazin-1-yl)quinolin-4(1H)-one]",IC50,[2],307 nM
same,IC50,[1]; [5],0.184 µM
CCOC(=O)c1cn(C2CC2)c2cc(N3CCNCC3)c(F)cc2c1=O [Compound 38],IC50,[1]; [4],53.6 µM
CCCCOC(=O)c1cn(C2CC2)c2cc(N3CCNCC3)c(F)cc2c1=O [Compound 39],IC50,[1]; [4],13.6 µM
same,IC50,[1]; [6],7 µM
CCOC(=O)c1cn(CC)c2cc(N3CCNCC3)c(F)cc2c1=O [Compound 40],IC50,[1]; [4],19.7 µM
same,IC50,[1]; [6],45.7 µM
CCCCOC(=O)c1cn(CC)c2cc(N3CCNCC3)c(F)cc2c1=O [Compound 41],IC50,[1]; [4],13.9 µM
same,IC50,[1]; [6],8.6 µM
O=C(c1cn(C2CC2)c2cc(N3CCNCC3)c(F)cc2c1=O)N1CCN(c2ccnc3cc(Cl)ccc23)CC1 [Compound 42],IC50,[1]; [7],0.36 µM
same,IC50,[1]; [4],0.36 µM
CCn1cc(C(=O)N2CCN(c3ccnc4cc(Cl)ccc34)CC2)c(=O)c2cc(F)c(N3CCNCC3)cc21 [Compound 43],IC50,[2],483 nM
same,Selectivity Index (IC50 AB943/IC50 Dd2),[2],26
same,IC50,[1]; [5],0.476 µM
same,Selectivity Index (IC50 AB943/IC50 FcB1),[1],27
same,IC50,[3],12.7 µM
"CC1CCC2C(C)C(CC(=O)O)OC3OC4(C)CCC1C32OO4 (stereo not shown) [Compound 44, reference compound]",IC50,[1]; [7],0.401 µM
same,IC50,[1]; [4],0.401 µM
"CC1CCC2C(C)C(CCC(=O)O)OC3OC4(C)CCC1C32OO4 (stereo not shown) [Compound 45, reference compound]",IC50,[1]; [7],0.264 µM
same,IC50,[1]; [4],0.264 µM
"CCn1cc(C(=O)O)c(=O)c2cc(F)c(N3CCNCC3)cc21 [NRX, norfloxacin]",IC50,[1]; [4],81.4 µM
